From paper PMC3913620, “Preclinical Evaluation of the Novel, Orally Bioavailable Selective Inhibitor of Nuclear Export (SINE) KPT-335 in Spontaneous Canine Cancer: Results of a Phase I Study” (PLoS ONE, 2014)

Key:
[1] = tested on: canine melanoma cell lines; test: Proliferation and viability of canine melanoma cell lines (data not shown); format: cell-based; details: Canis lupus familiaris, read-out: IC50 concentrations, canine melanoma cell lines
OCI-Ly10 DLBCL cells = test: MTS cell viability assay, OCI-Ly10; format: cell-based, human; details: Homo sapiens, OCI-Ly10, 72 hours, read-out: IC50 (± S.D.), OCI-Ly10
Procedure: (§1) Cryopreserved tumor cells obtained from sterile lymph node biopsy samples from dogs with diffuse large B cell lymphoma (DLBCL) were cultured with 100 ng/mL of megaCD40L (Enzo Life Science, Plymouth Meeting, PA) as previously described, [27]. The human T-cell leukemia cell line, Jurkat, was from the American Type Culture Collection (ATCC, Manassas, VA) and cultured in RPMI1640 medium (Gibco/BRL, Grand Island, NY) containing 10% fetal bovine serum (FBS; Atlas Biologicals, Fort Collins, CO), 2-mercaptoethanol (Gibco/BRL), HEPES, L-glutamine, sodium pyruvate (Mediatech Inc., Manassas, VA), non-essential amino acids (Sigma Aldrich, St. Louis, MO), and Primocin (Invivogen, San Diego, CA). […]
(§2) Cell viability for lymphoid lines was determined by the MTS (3-(4, 5-dimethylthiazol-2-yl)-5-(3-carboxymethoxyphenyl)-2-(4-sulfophenyl)-2H-tetrazolium) assay using CellTiter 96® AQueous One Solution Cell Proliferation Assay Kit (Promega, Madison, WI). […] After 72 hours, 20 µL of MTS solution was added to each well and cells were incubated for another 4 hours before measuring absorbance at 490 nm using a Wallac Victor 1420 Multilabel Counter (Perkin Elmer, Waltham, MA). The IC50 of SINE was calculated using Prism 6 software (GraphPad Software, Inc., La Jolla, CA).

CLBL1 DLBCL cells = test: MTS cell viability assay, CLBL1; format: cell-based, canine; details: Canis lupus familiaris, CLBL-1, 72 hours, read-out: IC50 (± S.D.), CLBL1
Procedure: as §1, §2

[2] = Tolerability in normal laboratory dogs (data not shown); details: dog, in vivo
[3] = tested on: primary canine DLBCL cells; test: Annexin V apoptosis assay (flow cytometry), primary canine DLBCL; format: cell-based; details: primary canine DLBCL (sample #1), 100 nM, 24 hours
Procedure: Jurkat cells and primary canine DLBCL cells were cultured for 24 hours in the presence of 100 nM KPT-335 or dimethyl sulfoxide (DMSO). Cells were stained with Annexin V (eBiosciences, San Diego, CA) according to the manufacturer’s instruction. Flow cytometry was performed using a BD LSRII flow cytometer (BD Immunocytometry Systems, San Jose, CA) and results were analyzed using FlowJo software (Tree Star, Ashland, OR).

SMILES: O=C(/C=C\n1cnc(-c2cc(C(F)(F)F)cc(C(F)(F)F)c2)n1)NNc1ccccn1 [KPT-335]
- IC50 [1]: 0.095 to 0.29 µM
- IC50 (OCI-Ly10 DLBCL cells): 0.0418 ± 0.021 µM
- IC50 (CLBL1 DLBCL cells): 0.0085 ± 0.0041 µM
- MTD [2]: 2 mg/kg
- apoptotic cells (Annexin V+ cells) compared to mock treated cells [3]: increased apoptotic cells
